Patent publication US11883389B2, “Formulations of 2-(4-chlorophenyl)-N-((2-(2,6- dioxopiperidin-3-yl)-1-oxoisoindolin-5-yl)methyl)-2,2-difluoroacetamide” (Celgene Corporation, priority 2016, dated 2024)

How the values were obtained:
[1] = hygroscopicity / dynamic vapor sorption analysis; format: physicochemical; details: for water uptake (DVS): RH increased from about 0% to about 90% RH
Experimental: In certain embodiments, Form A is characterized by dynamic vapor sorption analysis. […] In certain embodiments, Form A comprises less than 0.1% water as determined in a coulometric Karl Fischer (KF) titrator equipped with an oven sample processor set at 225° C.
In certain embodiments, Form B is characterized by dynamic vapor sorption analysis. […] In certain embodiments, Form B comprises less than 0.1% water as determined in a coulometric Karl Fischer (KF) titrator equipped with an oven sample processor set at 225° C.
In certain embodiments, Form C is characterized by dynamic vapor sorption analysis. […] In certain embodiments, Form C comprises less than 0.1% water as determined in a coulometric Karl Fischer (KF) titrator equipped with an oven sample processor set at 225° C.

[2] = pH 5
physchem [3] = details: aqueous buffer
physchem [4] = format: physicochemical; details: organic solvent or mixture
Source text: Due to the poor water solubility of Compound 1, Form C, a cosolvent system was required to solubilize the drug compound in a solution prior to lyophilization. Several solubilizing agents and solvents that were considered in this example include hydroxypropyl-beta-cyclodextrin (HPβCD), Sulfobutylether-β-cyclodextrin sodium salt (SBEβCD; Captisol®), Tert-butyl alcohol (TBA), and dimethylacetamide (DMA).
When the SBEβCD concentration increased from 30% to 40%, the enhancement in drug solubility was very limited.

SMILES	Hygroscopicity [1]	Solution Stability [2]	solubility (physchem [3]) [mg/mL]	water uptake (DVS) [1]	solubility (physchem [4]) [mg/mL]
O=C1CCC(N2Cc3cc(CNC(=O)C(F)(F)c4ccc(Cl)cc4)ccc3C2=O)C(=O)N1 (stereo not shown) [Compound 1, 2-(4-chlorophenyl)-N-((2-(2,6-dioxopiperidin-3-yl)-1-oxoisoindolin-5-yl)methyl)-2,2-difluoroacetamide]	Not hygroscopic	DS is not stable in solution at pH of 5.0 or above.	≤ 0.001	–	–
O=C1CCC(N2Cc3cc(CNC(=O)C(F)(F)c4ccc(Cl)cc4)ccc3C2=O)C(=O)N1 (single isomer, unassigned) [Form C, 2-(4-Chlorophenyl)-N-((2-(2,6-dioxopiperidin-3-yl)-1-oxoisoindolin-5-yl)methyl)-2,2-difluoroacetamide]	–	–	–	about 0.6 % w/w	< 166
O=C1CCC(N2Cc3cc(CNC(=O)C(F)(F)c4ccc(Cl)cc4)ccc3C2=O)C(=O)N1 (single isomer, unassigned) [Form A, 2-(4-Chlorophenyl)-N-((2-(2,6-dioxopiperidin-3-yl)-1-oxoisoindolin-5-yl)methyl)-2,2-difluoroacetamide]	–	–	–	about 1.2 % w/w	–
O=C1CCC(N2Cc3cc(CNC(=O)C(F)(F)c4ccc(Cl)cc4)ccc3C2=O)C(=O)N1 (stereo not shown) [Form B, 2-(4-chlorophenyl)-N-((2-(2,6-dioxopiperidin-3-yl)-1-oxoisoindolin-5-yl)methyl)-2,2-difluoroacetamide]	–	–	–	about 1.4 % w/w	–
